One data set deals with Cytochrome P450 3A4 (Homo sapiens, UniProt P08684). Briefly: Inhibition of CYP3A4 in pooled human liver microsome using nifedipine substrate. It counts as ADME, microsomes. For orientation: Liver microsomes are vesicles of endoplasmic reticulum, rich in cytochrome P450 enzymes.
Data set [1] in a line: Volume of distribution at steady state in iv dosed mouse. It counts as ADME, organism-based. The settings on record: in vivo, read-out: Vdss.
Data set [2] deals with T1, Nuclear receptor ROR-alpha (Homo sapiens, UniProt P35398).
T1 sequence (P35398 whole entry): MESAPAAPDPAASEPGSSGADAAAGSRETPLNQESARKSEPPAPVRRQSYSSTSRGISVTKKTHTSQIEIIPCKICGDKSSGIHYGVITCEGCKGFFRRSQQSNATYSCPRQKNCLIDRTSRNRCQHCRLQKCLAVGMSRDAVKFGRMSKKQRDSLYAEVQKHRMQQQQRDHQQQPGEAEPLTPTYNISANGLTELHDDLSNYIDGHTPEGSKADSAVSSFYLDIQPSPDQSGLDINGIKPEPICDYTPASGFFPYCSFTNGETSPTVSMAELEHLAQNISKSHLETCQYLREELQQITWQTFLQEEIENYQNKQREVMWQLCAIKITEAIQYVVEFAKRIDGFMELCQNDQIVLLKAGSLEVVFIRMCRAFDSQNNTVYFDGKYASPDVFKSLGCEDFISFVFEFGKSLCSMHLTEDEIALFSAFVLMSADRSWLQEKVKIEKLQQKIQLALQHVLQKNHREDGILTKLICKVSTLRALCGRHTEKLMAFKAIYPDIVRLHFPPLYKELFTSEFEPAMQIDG
Briefly: Agonist activity at RORalpha assessed as receptor-coactivator peptide interaction by FRET assay. Format: functional.

A short description of data set [3]: Apparent permeability in MDCK cells. It counts as ADME, cell-based, Canis lupus familiaris. As to conditions: dog.
The target in data set [4] is Nuclear receptor subfamily 5 group A member 2 (Homo sapiens, UniProt O00482). Briefly: Agonist activity at LRH assessed as receptor-coactivator peptide interaction by FRET assay. It counts as functional.
Nuclear receptor subfamily 5 group A member 2, sequence (O00482 whole entry): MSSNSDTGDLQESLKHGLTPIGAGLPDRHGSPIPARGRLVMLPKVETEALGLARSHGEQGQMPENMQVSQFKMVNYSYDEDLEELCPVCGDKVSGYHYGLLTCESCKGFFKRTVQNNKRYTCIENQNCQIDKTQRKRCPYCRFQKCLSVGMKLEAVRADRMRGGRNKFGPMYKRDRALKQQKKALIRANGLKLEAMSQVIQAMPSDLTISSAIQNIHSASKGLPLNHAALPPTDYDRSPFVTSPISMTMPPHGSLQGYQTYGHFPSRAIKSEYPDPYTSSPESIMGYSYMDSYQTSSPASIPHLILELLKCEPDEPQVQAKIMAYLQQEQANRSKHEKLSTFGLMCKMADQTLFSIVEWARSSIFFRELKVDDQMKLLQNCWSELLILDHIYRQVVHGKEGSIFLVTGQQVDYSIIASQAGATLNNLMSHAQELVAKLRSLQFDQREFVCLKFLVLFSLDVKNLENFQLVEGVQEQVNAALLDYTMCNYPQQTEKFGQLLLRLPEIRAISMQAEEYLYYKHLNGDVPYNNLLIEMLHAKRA
In data set [5] the target is T2, Bile acid receptor (Homo sapiens) (UniProt Q96RI1).
T2 sequence (whole entry): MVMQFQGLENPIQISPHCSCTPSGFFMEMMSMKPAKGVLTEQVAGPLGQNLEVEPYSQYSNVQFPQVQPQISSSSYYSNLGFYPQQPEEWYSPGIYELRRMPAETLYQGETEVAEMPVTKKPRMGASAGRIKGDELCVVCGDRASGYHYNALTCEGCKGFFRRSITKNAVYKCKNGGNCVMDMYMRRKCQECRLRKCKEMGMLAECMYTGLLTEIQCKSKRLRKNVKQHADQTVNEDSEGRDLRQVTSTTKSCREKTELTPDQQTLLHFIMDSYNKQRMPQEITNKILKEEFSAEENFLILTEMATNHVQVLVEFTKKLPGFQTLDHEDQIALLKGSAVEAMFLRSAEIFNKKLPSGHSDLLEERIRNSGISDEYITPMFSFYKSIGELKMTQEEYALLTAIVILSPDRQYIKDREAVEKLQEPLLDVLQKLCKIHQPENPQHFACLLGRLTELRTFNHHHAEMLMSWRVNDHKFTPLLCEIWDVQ
The experiment in a line: Agonist activity at FXR assessed as receptor-SRC-1 peptide interaction by FRET assay relative to GW-4064. It counts as functional.

The target in a further data set is T3, Bile acid receptor (Homo sapiens, UniProt Q96RI1).
T3 sequence (Q96RI1 whole entry): T2 sequence (whole entry)
Briefly: Agonist activity at FXR expressed in african green monkey CV1 cells by luciferase reporter transient transfection assay. It counts as functional, cell-based, CV-1. For orientation: In a reporter assay the amount or activity of a reporter protein is the signal.

For data set [6], the target named is T2, Bile acid receptor (Homo sapiens). Briefly: Agonist activity at FXR expressed in african green monkey CV1 cells by luciferase reporter transient transfection assay relative to GW-4064. Format: functional, cell-based. The settings on record: CV-1.
Data set [7] in a line: Clearance in iv dosed rat. Format: ADME, organism-based. The settings on record: in vivo.
Data set [8] is described as follows: Volume of distribution at steady state in iv dosed Beagle dog. Format: ADME, organism-based, Canis lupus familiaris. The settings on record: in vivo, read-out: Vdss.
The target of the next data set is T4, PXR (Homo sapiens, UniProt O75469).
T4 sequence (O75469 whole entry): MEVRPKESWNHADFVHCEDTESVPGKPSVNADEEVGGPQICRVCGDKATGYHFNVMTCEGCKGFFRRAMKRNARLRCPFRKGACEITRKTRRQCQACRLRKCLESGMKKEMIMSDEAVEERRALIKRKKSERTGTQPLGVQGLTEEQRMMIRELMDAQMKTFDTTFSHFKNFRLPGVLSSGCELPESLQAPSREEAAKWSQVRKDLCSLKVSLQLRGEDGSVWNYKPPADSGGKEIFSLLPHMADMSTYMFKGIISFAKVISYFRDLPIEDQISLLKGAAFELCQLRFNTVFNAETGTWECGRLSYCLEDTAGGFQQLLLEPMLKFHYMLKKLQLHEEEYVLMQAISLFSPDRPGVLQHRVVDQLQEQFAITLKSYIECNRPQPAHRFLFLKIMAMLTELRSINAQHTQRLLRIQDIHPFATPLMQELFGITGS
The experiment in a line: Agonist activity at PXR by SPA assay. It counts as functional.

For data set [9], the target named is T5, Peroxisome proliferator-activated receptor gamma (Homo sapiens, UniProt P37231).
T5 sequence (P37231 whole entry): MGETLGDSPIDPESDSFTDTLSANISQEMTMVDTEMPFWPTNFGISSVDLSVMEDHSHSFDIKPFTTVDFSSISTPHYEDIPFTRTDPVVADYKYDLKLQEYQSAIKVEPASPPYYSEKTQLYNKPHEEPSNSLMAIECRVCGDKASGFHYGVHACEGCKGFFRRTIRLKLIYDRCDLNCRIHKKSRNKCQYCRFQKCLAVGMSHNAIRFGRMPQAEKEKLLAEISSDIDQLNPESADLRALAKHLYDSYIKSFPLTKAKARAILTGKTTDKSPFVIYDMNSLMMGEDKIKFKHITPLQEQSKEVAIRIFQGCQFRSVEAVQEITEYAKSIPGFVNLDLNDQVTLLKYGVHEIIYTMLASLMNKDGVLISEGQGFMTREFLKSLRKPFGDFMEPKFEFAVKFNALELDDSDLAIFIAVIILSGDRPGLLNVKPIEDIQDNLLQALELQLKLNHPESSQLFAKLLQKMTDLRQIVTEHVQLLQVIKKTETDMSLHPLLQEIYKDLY
Briefly: Agonist activity at PPARgamma by SPA assay. Format: functional.

Another data set has as its system Rattus norvegicus. Briefly: Reduction of serum gamma-glutamyl transferase level in alpha-naphthyl-isothiocyanate-induced rat acute cholestasis model at 100 to 300 mg/kg, po bid for 4 days dosed before 2 days induction by alpha-naphthyl-isothiocyanate. Format: functional, organism-based.
Data set [10] can be described thus: Half life in iv dosed mouse. Format: ADME, organism-based. As to conditions: in vivo.
The target of a further data set is Cytochrome P450 2C9 (Homo sapiens, UniProt P11712). Briefly: Inhibition of CYP2C9 in pooled human liver microsome. It counts as ADME.
Cytochrome P450 2C9, sequence (P11712 whole entry): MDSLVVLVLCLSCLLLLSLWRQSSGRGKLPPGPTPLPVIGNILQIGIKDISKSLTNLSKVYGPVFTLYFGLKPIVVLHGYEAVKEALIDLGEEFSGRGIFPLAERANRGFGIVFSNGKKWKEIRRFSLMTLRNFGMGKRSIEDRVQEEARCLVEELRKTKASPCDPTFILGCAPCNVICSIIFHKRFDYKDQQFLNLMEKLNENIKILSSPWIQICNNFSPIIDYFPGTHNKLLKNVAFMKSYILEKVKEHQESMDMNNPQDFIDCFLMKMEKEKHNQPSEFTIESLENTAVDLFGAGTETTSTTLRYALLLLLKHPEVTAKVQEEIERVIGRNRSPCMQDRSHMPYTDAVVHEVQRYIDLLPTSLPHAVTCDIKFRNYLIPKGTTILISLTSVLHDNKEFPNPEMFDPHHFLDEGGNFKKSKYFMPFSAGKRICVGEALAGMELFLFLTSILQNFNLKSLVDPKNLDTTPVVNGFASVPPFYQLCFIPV

Activity calls are given as the source filed them. No cut-off for these calls is given here.

Cytochrome P450 3A4, sequence (P08684 whole entry): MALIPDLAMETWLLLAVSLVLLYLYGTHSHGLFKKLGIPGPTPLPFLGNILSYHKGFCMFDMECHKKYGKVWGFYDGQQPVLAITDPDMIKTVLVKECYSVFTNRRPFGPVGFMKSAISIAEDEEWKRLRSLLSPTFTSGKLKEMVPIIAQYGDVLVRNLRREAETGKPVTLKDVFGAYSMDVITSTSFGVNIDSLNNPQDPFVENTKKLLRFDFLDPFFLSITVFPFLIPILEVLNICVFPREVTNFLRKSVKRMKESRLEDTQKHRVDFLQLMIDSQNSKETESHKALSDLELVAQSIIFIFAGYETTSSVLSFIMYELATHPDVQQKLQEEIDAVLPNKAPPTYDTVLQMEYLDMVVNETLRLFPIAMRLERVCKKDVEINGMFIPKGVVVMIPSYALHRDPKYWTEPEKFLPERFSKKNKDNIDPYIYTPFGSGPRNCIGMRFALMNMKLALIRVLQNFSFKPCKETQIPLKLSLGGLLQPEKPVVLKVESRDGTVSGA

For `CC(C)c1onc(-c2c(Cl)cccc2Cl)c1COc1ccc(-c2ccc3c(C(=O)O)cccc3c2)cc1`, the IC50 (as a rule, the point on the concentration scale where inhibition reaches its midpoint) against Cytochrome P450 3A4 stood at 8.8 µM; at Cytochrome P450 2C9 it was 17 µM. Further, the Vd was 0.4 L/kg in data set [1] and 0.48 L/kg in data set [8]. For the same compound, the XC50 in data set [2] is > 10 µM; in data set [4], > 10 µM; at PXR, 3.1 µM; in data set [9], > 10 µM. Also, the Papp (in general, a coefficient for how fast a substance crosses the barrier) in data set [3] is 19 ×10⁻⁶ cm/s. The %max is 134% in data set [5] and 104% in [6]. Moreover, the EC50 – broadly, the concentration that produces a half-maximal response – at Bile acid receptor was determined as 0.068 µM. In addition, the clearance (as a rule, the rate of elimination divided by the concentration) in data set [7] was 57 mL/min/kg. Moreover, in the data set with Rattus norvegicus, the outcome was Active. Besides, the half-life – broadly, how long it takes for the measured level to halve – in data set [10] is 1.6 h.

The values above are taken from ChEMBL document CHEMBL1155854, “Conformationally constrained farnesoid X receptor (FXR) agonists: Naphthoic acid-based analogs of GW 4064” (Bioorg Med Chem Lett, 2008).
